Usually melting point stands for the temperature of the solid-liquid transition.

These results are taken from patent US20130281399A1, “TREATMENT OF DISEASES BY EPIGENETIC REGULATION” (RVX Therapeutics Inc., priority 2012, published 2013).

For data set [1], the system named is Human AML MV-4-11 cells. Description: Inhibition of cell proliferation in human AML MV-4-11 cells (CellTiter Aqueous One). It is filed as cell-based. More on the design: key: Active: Compounds with an IC50 value less than 30 μM were deemed to be active. The note with it: 72 hours, 30 μM to 0.2 μM. On the procedure: MV4-11 cells: 96-well plates were seeded with 5×10^4 cells per well of exponentially growing human AML MV-4-11 (CRL-9591) cells and immediately treated with two-fold dilutions of test compounds, ranging from 30 μM to 0.2 μM. Triplicate wells were used for each concentration, as well as a media only and three DMSO control wells. The cells and compounds were incubated at 37° C., 5% CO2 for 72 hours before adding 20 μL of the CellTiter Aqueous One Solution (Promega) to each well and incubated at 37° C., 5% CO2 for an additional 3-4 hours. The absorbance was taken at 490 nm in a spectrophotometer and the percentage of proliferation relative to DMSO-treated cells was calculated after correction from the blank well. IC50 were calculated using the GraphPad Prism software.

Data set [2] concerns the target T1, Brd4 bromodomain 1 (Homo sapiens, UniProt O60885).
T1 construct: made in house; host or cells: E. coli BL21(DE3)
Briefly: Inhibition of binding of tetra-acetylated histone H4 to Brd4 bromodomain 1 (TR-FRET). Particulars: His-tagged Brd4 bromodomain 1 200 nM, tetra-acetylated histone H4 peptide 25-50 nM, 2 hours room temperature. An outline of the steps: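 His-tagged Brd4 BD1 was expressed in E. coli and purified by Ni affinity and size exclusion. TR-FRET competition with tetra-acetylated H4 was run in 30 mM HEPES pH 7.4, 30 mM NaCl, 0.3 mM CHAPS, 20 mM phosphate pH 7.0, 320 mM KF and 0.08% BSA, with 0.2% DMSO.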
For orientation: TR-FRET usually uses a lanthanide donor and a delayed reading to cut background.

Data set [3] has as its system c-myc. Briefly: Inhibition of c-myc expression in MV4-11 cells (real-time PCR of mRNA). It is filed as cell-based, Human. The arrangement: key: Active: Compounds with an IC50 value less than 30 uM were deemed to be active. Particulars: 3 hours at 37° C. On the procedure: MV4-11 cells (2.5×10^4 cells) were plated in 96 well U-bottom plates with test compound or DMSO (0.1%), and incubated for 3 hours at 37° C. Cells were then harvested by centrifugation, lysed, and mRNA was isolated using the mRNA catcher plus kit (Invitrogen). Reverse transcription of the mRNA and duplex amplification of the c-myc and cyclophilin cDNAs was performed using the RNA Ultrasense kit (Invitrogen) and a ViiA7 real-time PCR machine (Applied Biosystems). IC50 values were determined from a dose response curve.

Regarding `COc1cc(OC)c2c(=O)[nH]c(-c3ccc(N4CCN(C(C)C)CC4)cc3)nc2c1` [Example 10, 2-(4-(4-Isopropylpiperazin-1-yl)phenyl)-5,7-dimethoxyquinazolin-4(3H)-one], in data set [1], the “cell proliferation activity (<30 uM)” value is on record as “Inactive”. Besides, the “FRET activity (<50 uM)” value in data set [2] is “Active”. In addition, the “c-myc activity (<30 uM)” value in data set [3] is on record as “Active”.

As to `COc1cc(OC)c2c(=O)[nH]c(-c3ccc(OCCN4CCCC4)c(C)c3)nc2c1` [Example 73, 5,7-Dimethoxy-2-(3-methyl-4-(2-(pyrrolidin-1-yl)ethoxy)phenyl)quinazolin-4(3H)-one], the melting point fell in the range of 230 to 231 °C. In data set [2], the “FRET activity (<50 uM)” value was “Active”. The “c-myc activity (<30 uM)” value in data set [3] was “Active”.

In turn, `COc1cc(OC)c2c(=O)[nH]c(-c3ccc(CN4C(=O)CNC4=O)cc3)nc2c1` [Example 80, 3-(4-(5,7-Dimethoxy-4-oxo-3,4-dihydroquinazolin-2-yl)benzyl)imidazolidine-2,4-dione] yielded a melting point of 317 to 318 °C. The “FRET activity (<50 uM)” value in data set [2] is given as “Inactive”.

`Cc1cc(-c2nc3cccc(Cl)c3c(=O)[nH]2)cc(C)c1OCCN1CCCC1` [Example 83, 5-Chloro-2-(3,5-dimethyl-4-(2-(pyrrolidin-1-yl)ethoxy)phenyl)quinazolin-4(3H)-one]: the melting point was in the range of 179 to 180 °C. Also, the “FRET activity (<50 uM)” value in data set [2] is “Inactive”.

`COc1cc(OC)c2c(=O)[nH]c(-c3cc(C)c(OCCN4CCCCCC4)c(C)c3)nc2c1` [Example 84, 2-(4-(2-(Azepan-1-yl)ethoxy)-3,5-dimethylphenyl)-5,7-dimethoxyquinazolin-4(3H)-one]: the melting point was 198 to 199 °C. Moreover, the “FRET activity (<50 uM)” value in data set [2] is given as “Active”.

As for `COc1cc(OC)c2c(=O)[nH]c(-c3cc(C)c(OCCN4CCC4)c(C)c3)nc2c1` [Example 86, 2-(4-(2-(Azetidin-1-yl)ethoxy)-3,5-dimethylphenyl)-5,7-dimethoxyquinazolin-4(3H)-one], the melting point is 204 to 205 °C. Also, in data set [2], the “FRET activity (<50 uM)” value is recorded as “Active”.

As for `COc1cc(OC)c2c(=O)[nH]c(-c3cc(C)c(OCCN4CC(NC(C)=O)C4)c(C)c3)nc2c1` [Example 87, N-(1-(2-(4-(5,7-Dimethoxy-4-oxo-3,4-dihydroquinazolin-2-yl)-2,6-dimethylphenoxy)ethyl)azetidin-3-yl)acetamide], the melting point lay within 111.8 to 113.6 °C. Moreover, in data set [2], the “FRET activity (<50 uM)” value is “Active”.

Molecule `Cc1cc(-c2nc3cc(OC(C)C)cc(OC(C)C)c3c(=O)[nH]2)cc(C)c1OCCN1CCCC1` [Example 88, 2-(3,5-Dimethyl-4-(2-(pyrrolidin-1-yl)ethoxy)phenyl)-5,7-diisopropoxyquinazolin-4(3H)-one] came in with a melting point of 65 to 68 °C. For the same molecule, the “FRET activity (<50 uM)” value in data set [2] is “Inactive”.

`Cc1cc(C)c2c(=O)[nH]c(-c3cc(C)c(OCCN4CCCC4)c(C)c3)nc2c1` [Example 89, 2-(3,5-Dimethyl-4-(2-(pyrrolidin-1-yl)ethoxy)phenyl)-5,7-dimethylquinazolin-4(3H)-one] came in with a melting point of 181 to 182 °C. Moreover, in data set [2], the “FRET activity (<50 uM)” value is given as “Active”.

`COc1cc(OC)c2c(=O)[nH]c(-c3ccc(Cc4nnn[nH]4)cc3)nc2c1` [Example 96, 2-(4-((1H-Tetrazol-5-yl)methyl)phenyl)-5,7-dimethoxyquinazolin-4(3H)-one] displayed a melting point of 295 to 296 °C. Further, the “FRET activity (<50 uM)” value in data set [2] is listed as “Active”.

The molecule `COc1cc(OCCOCc2ccccc2)cc2nc(-c3ccncc3)[nH]c(=O)c12` [Example 98, 7-(2-(Benzyloxy)ethoxy)-5-methoxy-2-(pyridin-4-yl)quinazolin-4(3H)-one] displayed a melting point of 228.2 to 229.9 °C. Besides, the “FRET activity (<50 uM)” value in data set [2] is on record as “Inactive”.

The molecule `COc1cc(OC)c2c(=O)[nH]c(-c3cc(C)nc(C)c3)nc2c1` [Example 99, 2-(2,6-Dimethylpyridin-4-yl)-5,7-dimethoxyquinazolin-4(3H)-one] gave a melting point of 291 to 292 °C. For the same molecule, the “FRET activity (<50 uM)” value in data set [2] is recorded as “Active”.

As to `COCCOc1cc(OC)c2c(=O)[nH]c(-c3cc(C)nc(C)c3)nc2c1` [Example 100, 2-(2,6-Dimethylpyridin-4-yl)-5-methoxy-7-(2-methoxyethoxy)quinazolin-4(3H)-one], the melting point was in the range of 228.8 to 230.4 °C. Besides, the “FRET activity (<50 uM)” value in data set [2] is “Active”.

On to `COCCOc1cc(OCCOC)c2c(=O)[nH]c(-c3cc(C)nc(C)c3)nc2c1` [Example 101, 2-(2,6-Dimethylpyridin-4-yl)-5,7-bis(2-methoxyethoxy)quinazolin-4(3H)-one], for which the melting point was in the range of 149.8 to 151.4 °C. Further, the “FRET activity (<50 uM)” value in data set [2] is “Active”.

The molecule `COc1cc(OCCN2CCCC2)c2c(=O)[nH]c(-c3cc(C)nc(C)c3)nc2c1` [Example 102, 2-(2,6-Dimethylpyridin-4-yl)-7-methoxy-5-(2-(pyrrolidin-1-yl)ethoxy)quinazolin-4(3H)-one] gave a melting point of 190 to 191 °C. For the same molecule, the “FRET activity (<50 uM)” value in data set [2] was “Active”.

For `COc1cc(OCCOc2ccccc2)cc2nc(-c3cc(C)nc(C)c3)[nH]c(=O)c12` [Example 103, 2-(2,6-Dimethylpyridin-4-yl)-5-methoxy-7-(2-phenoxyethoxy)quinazolin-4(3H)-one], the melting point was in the range of 223 to 224 °C. The “FRET activity (<50 uM)” value in data set [2] is “Active”.

As to `COc1cc(OCCOc2ccccc2)c2c(=O)[nH]c(-c3cc(C)nc(C)c3)nc2c1` [Example 104, 2-(2,6-Dimethylpyridin-4-yl)-7-methoxy-5-(2-phenoxyethoxy)quinazolin-4(3H)-one], the melting point fell in the range of 172.3 to 173.2 °C. In data set [2], the “FRET activity (<50 uM)” value is “Active”.

`COc1cc(OCCN2CCCC2)cc2nc(-c3cc(C)nc(C)c3)[nH]c(=O)c12` [Example 106, 2-(2,6-Dimethylpyridin-4-yl)-5-methoxy-7-(2-(pyrrolidin-1-yl)ethoxy)quinazolin-4(3H)-one] registered a melting point of 227 to 229 °C. Also, the “FRET activity (<50 uM)” value in data set [2] is on record as “Active”.

`Cc1cc(-c2nc3cc(OCCOC(C)C)cc(OCCOC(C)C)c3c(=O)[nH]2)cc(C)n1` [Example 108, 2-(2,6-dimethylpyridin-4-yl)-5,7-bis(2-isopropoxyethoxy)quinazolin-4(3H)-one] gave a melting point of 124 to 125 °C. The “FRET activity (<50 uM)” value in data set [2] was “Active”.

Consider `COc1cc(OCCOCc2ccccc2)cc2nc(-c3cc(C)nc(C)c3)[nH]c(=O)c12` [Example 109, 7-(2-(Benzyloxy)ethoxy)-2-(2,6-dimethylpyridin-4-yl)-5-methoxyquinazolin-4(3H)-one], for which the melting point lay within 178 to 180 °C. In data set [2], the “FRET activity (<50 uM)” value was “Active”.

Consider `COCCOc1cc(OC)c2c(=O)[nH]c(-c3ccnc(C)c3)nc2c1` [Example 110, 5-methoxy-7-(2-methoxyethoxy)-2-(2-methylpyridin-4-yl)quinazolin-4(3H)-one], for which the melting point fell in the range of 260 to 262 °C. Further, in data set [2], the “FRET activity (<50 uM)” value is “Active”.

`COCCOc1cc(OCCN2CCCC2)c2c(=O)[nH]c(-c3cc(C)nc(C)c3)nc2c1` [Example 111, 2-(2,6-Dimethylpyridin-4-yl)-7-(2-methoxyethoxy)-5-(2-(pyrrolidin-1-yl)ethoxy)quinazolin-4(3H)-one] yielded a melting point of 60.4 to 62.3 °C. Besides, in data set [2], the “FRET activity (<50 uM)” value was “Active”.

In turn, `COc1cc(OC)c2c(=O)[nH]c(-c3cccc(OCCO)c3)nc2c1` [Example 112, 2-(3-(2-Hydroxyethoxy)phenyl)-5,7-dimethoxyquinazolin-4(3H)-one] had a melting point of 244.8 to 246 °C. Further, in data set [2], the “FRET activity (<50 uM)” value is “Active”.

For `COc1cc(OC)c2c(=O)[nH]c(-c3cc(C)cc(OCCO)c3)nc2c1` [Example 113, 2-(3-(2-Hydroxyethoxy)-5-methylphenyl)-5,7-dimethoxyquinazolin-4(3H)-one], the melting point lay in the range of 106.9 to 109.1 °C. Moreover, the “FRET activity (<50 uM)” value in data set [2] is given as “Active”.

`COc1cc(OCCN2CCCC2)cc(-c2nc3cc(OC)cc(OC)c3c(=O)[nH]2)c1` [Example 114, 5,7-Dimethoxy-2-(3-methoxy-5-(2-(pyrrolidin-1-yl)ethoxy)phenyl)quinazolin-4(3H)-one]: the melting point lay in the range of 159 to 160 °C. Also, the “cell proliferation activity (<30 uM)” value in data set [1] is “Active”. Moreover, the “FRET activity (<50 uM)” value in data set [2] is “Active”. Also, the “c-myc activity (<30 uM)” value in data set [3] is given as “Active”.
